Entries after “also recorded” stand apart in the source; their conditions may differ.
Experiments:
[1] = tested on: myofibroblast cell lines (J2A, H1 or I1); assay: in vitro growth of Ras-transfected myofibroblast cell lines; type: cell-based, mouse; conditions: data not shown
From the text: Given the slow rate of tumor development and the rare emergence of STS in Vnn1+/+ mice, we developed new transplantable STS models. The different tumors derived from three independent myofibroblast cell lines (J2A, H1 or I1) were subcutaneously grafted in Nude mice. […] Since pantetheinase activity releases pantothenate and cysteamine in vivo, we tested the effect of these compounds on in vitro and in vivo growth.

[2] = tested on: Ras expressing tumors (R); assay: growth of tumors subcutaneously grafted in Nude mice; type: in vivo; conditions: administered to grafted mice, FIG. 4
From the text: The different tumors derived from three independent myofibroblast cell lines (J2A, H1 or I1) were subcutaneously grafted in Nude mice. […] Since pantetheinase activity releases pantothenate and cysteamine in vivo, we tested the effect of these compounds on in vitro and in vivo growth.

[3] = tested on: collagen I or caveolin I genes; assay: qRT-PCR of differentiation genes in enriched tumor cells depleted of CD45+ cells; type: in vivo, mice; conditions: cysteamine-treated R tumor cells
From the text: We then performed a similar analysis using RNA extracted from enriched R, cysteamine-treated R and VR tumor cells depleted of CD45+ hematopoietic cells. […] Therefore, Vnn1 expression is associated with a differentiated grade of tumors which is not recapitulated by CEA administration.

CoA levels = assay: coenzyme A levels in tumors; type: in vivo; conditions: administration to mice bearing R tumors
From the text: (§1) Since pantetheinase hydrolyses pantetheine into pantothenate and cysteamine, we searched for more specific actions. We first focused on pantothenate which could be detected by LC-MS analysis. […] Accordingly, we found some significant variations in the levels of various metabolites involved in the regulation of the TCA cycle.

GSH levels = GSH levels in tumor tissue extracts; type: in vivo; conditions: administration to tumor-bearing mice, data not shown
From the text: as §1

[4] = tested on: various metabolites analyzed by LC-MS; assay: LC-MS analysis of tumor metabolites; type: in vivo; conditions: administration to tumor-bearing mice
From the text: as §1

| Structure (SMILES) | growth of cell lines in vitro [1] | tumor growth in grafted mice [2] | expression of collagen I or caveolin I genes [3] | CoA levels in tumors (CoA levels) | GSH levels in tissue extracts (GSH levels) | impact on the various metabolites analyzed by LC-MS [4] |
| --- | --- | --- | --- | --- | --- | --- |
| CC(C)(CO)[C@@H](O)C(=O)NCCC(=O)O [pantothenate, 3-[(2R)-(2,4-Dihydroxy-3,3-dimethylbutanoyl)amino]propanoic acid] | no effect | – | – | – | – | – |
| NCCS [cysteamine, 2-aminoethanethiol] | reduced the growth of all cell lines | inhibits tumor growth; also recorded: reduced the growth | not able to induce the expression | only moderately enhanced | reduction in GSH levels | could not detect a significant impact |
